Patent US6525001B1, “Substituted pyrimidine and pyridine herbicides” (Mid-American Commercialization Corporation, priority 1997, dated 2003)

Key:
Assay type in all cases: in vivo
Design in all cases: key: 0 is no effect; 10 is complete control
[1] = system: bedstraw (Galium aparine); assay: Test B pre-/postemergence; conditions: Postemergence
Outline: (§1)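 Response scores run from 0, meaning no effect, to 10, meaning complete control, assigned by eye relative to controls twelve to sixteen days after spraying. Treatment was both preemergence on planted seed and postemergence on plants at the 1- to 4-leaf stage.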

[2] = system: blackgrass (Alopecurus myosuroides); assay: Test B pre-/postemergence
Outline: as §1

[3] = system: broadleaf signalgrass (Brachiaria decumbens); assay: Test B pre-/postemergence
Outline: as §1

[4] = system: cocklebur (Xanthium strumarium); assay: Test B pre-/postemergence
Outline: as §1

corn (Zea mays) = assay: Test B pre-/postemergence
Outline: as §1

[5] = system: crabgrass (Digitaria sanguinalis); assay: Test B pre-/postemergence
Outline: as §1

[6] = system: giant foxtail (Setaria faberii); assay: Test B pre-/postemergence
Outline: as §1

[7] = system: momingglory (Ipomoea hederacea); assay: Test B pre-/postemergence
Outline: as §1

[8] = system: pigweed (Amaranthus retroflexus); assay: Test B pre-/postemergence
Outline: as §1

[9] = system: purple nutsedge (Cyperus rotundus); assay: Test B pre-/postemergence; conditions: Rate 62 g/ha
Outline: as §1

rape (Brassica napus) = assay: Test B pre-/postemergence
Outline: as §1

soybean (Glycine max) = assay: Test B pre-/postemergence
Outline: as §1

[10] = system: sugar beet (Beta vulgaris); assay: Test B pre-/postemergence
Outline: as §1

[11] = system: velvetleaf (Abutilon theophrasti); assay: Test B pre-/postemergence
Outline: as §1

[12] = system: wheat (Triticum aestivum); assay: Test B pre-/postemergence
Outline: as §1

wild oat (Avena fatua) = assay: Test B pre-/postemergence
Outline: as §1

[13] = system: bamyardgrass (Echinochloa crus-galli); assay: Test B flood test
Outline: (§2)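 Each value is a visual injury score relative to controls, with 10 meaning complete control and 0 no effect. Evaluation took place twelve to sixteen days after the 2-leaf-stage plants were treated and kept in the greenhouse.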

[14] = system: duck salad (Heteranthera limosa); assay: Test B flood test
Outline: as §2

rice (Oryza sativa) = assay: Test B flood test
Outline: as §2

[15] = system: smallflower flatsedge (Cyperus difformis); assay: Test B flood test
Outline: as §2

[16] = Preemergence, Rate 62 g/ha, scale of 0 to 10
[17] = Rate 62 g/ha, Postemergence (flood test)
[18] = Rate 125 g/ha, Postemergence section (flood test species)
[19] = Rate 250 g/ha, Postemergence (flood test species)

SMILES: O=C(c1cccc(C(F)(F)F)c1)c1ccnc(-c2ccc(C(F)(F)F)cc2)n1 [Compound 77]
- Bedstraw plant response rating ([1]; Rate 62 g/ha): 1
- Bedstraw plant response rating ([1]; Rate 125 g/ha): 1
- Plant response rating, Bedstraw ([1]; Rate 250 g/ha): 4
- Plant response rating, Blackgrass [2, 16]: 0
- Blackgrass plant response rating ([2]; Rate 62 g/ha, Postemergence): 0
- Blackgrass plant response rating ([2]; Rate 125 g/ha, Postemergence): 0
- Plant response rating, Blackgrass ([2]; Rate 125 g/ha, Preemergence): 0
- Plant response rating, Blackgrass ([2]; Rate 250 g/ha, Postemergence): 2
- Plant response rating, Blackgrass ([2]; Rate 250 g/ha, Preemergence): 0
- B. signalgrass plant response rating ([3]; Rate 62 g/ha, Postemergence): 0
- B. signalgrass plant response rating ([3]; Rate 62 g/ha, Preemergence): 0
- B. signalgrass plant response rating ([3]; Rate 125 g/ha, Postemergence): 0
- Plant response rating, B. signalgrass ([3]; Rate 125 g/ha, Preemergence): 0
- Plant response rating, B. signalgrass ([3]; Rate 250 g/ha, Postemergence): 1
- Plant response rating, B. signalgrass ([3]; Rate 250 g/ha, Preemergence): 0
- Plant response rating, Cocklebur [4, 16]: 0
- Cocklebur plant response rating ([4]; Rate 62 g/ha, Postemergence): 1
- Cocklebur plant response rating ([4]; Rate 125 g/ha, Postemergence): 3
- Plant response rating, Cocklebur ([4]; Rate 125 g/ha, Preemergence): 0
- Plant response rating, Cocklebur ([4]; Rate 250 g/ha, Postemergence): 3
- Plant response rating, Cocklebur ([4]; Rate 250 g/ha, Preemergence): 0
- Plant response rating, Corn (corn (Zea mays); [16]): 0
- Corn plant response rating (corn (Zea mays); Rate 62 g/ha, Postemergence): 1
- Corn plant response rating (corn (Zea mays); Rate 125 g/ha, Postemergence): 1
- Plant response rating, Corn (corn (Zea mays); Rate 125 g/ha, Preemergence): 0
- Plant response rating, Corn (corn (Zea mays); Rate 250 g/ha, Postemergence): 1
- Plant response rating, Corn (corn (Zea mays); Rate 250 g/ha, Preemergence): 0
- Plant response rating, Crabgrass [5, 16]: 0
- Crabgrass plant response rating ([5]; Rate 62 g/ha, Postemergence): 0
- Crabgrass plant response rating ([5]; Rate 125 g/ha, Postemergence): 2
- Plant response rating, Crabgrass ([5]; Rate 125 g/ha, Preemergence): 0
- Plant response rating, Crabgrass ([5]; Rate 250 g/ha, Postemergence): 2
- Plant response rating, Crabgrass ([5]; Rate 250 g/ha, Preemergence): 1
- Plant response rating, Giant foxtail [6, 16]: 0
- Giant foxtail plant response rating ([6]; Rate 62 g/ha, Postemergence): 0
- Giant foxtail plant response rating ([6]; Rate 125 g/ha, Postemergence): 1
- Plant response rating, Giant foxtail ([6]; Rate 125 g/ha, Preemergence): 0
- Plant response rating, Giant foxtail ([6]; Rate 250 g/ha, Postemergence): 1
- Plant response rating, Giant foxtail ([6]; Rate 250 g/ha, Preemergence): 1
- Plant response rating, Morningglory [7, 16]: 0
- Morningglory plant response rating ([7]; Rate 62 g/ha, Postemergence): 2
- Morningglory plant response rating ([7]; Rate 125 g/ha, Postemergence): 4
- Plant response rating, Morningglory ([7]; Rate 125 g/ha, Preemergence): 0
- Plant response rating, Morningglory ([7]; Rate 250 g/ha, Postemergence): 4
- Plant response rating, Morningglory ([7]; Rate 250 g/ha, Preemergence): 1
- Plant response rating, Redroot pigweed [8, 16]: 0
- Redroot pigweed plant response rating ([8]; Rate 62 g/ha, Postemergence): 2
- Redroot pigweed plant response rating ([8]; Rate 125 g/ha, Postemergence): 2
- Plant response rating, Redroot pigweed ([8]; Rate 125 g/ha, Preemergence): 0
- Plant response rating, Redroot pigweed ([8]; Rate 250 g/ha, Postemergence): 3
- Plant response rating, Redroot pigweed ([8]; Rate 250 g/ha, Preemergence): 0
- Plant response rating, Nutsedge ([9]; Preemergence, scale of 0 to 10): 0
- Nutsedge plant response rating ([9]; Postemergence): 0
- Plant response rating, Rape (rape (Brassica napus); [16]): 0
- Rape plant response rating (rape (Brassica napus); Rate 62 g/ha, Postemergence): 1
- Rape plant response rating (rape (Brassica napus); Rate 125 g/ha, Postemergence): 1
- Plant response rating, Rape (rape (Brassica napus); Rate 125 g/ha, Preemergence): 0
- Plant response rating, Rape (rape (Brassica napus); Rate 250 g/ha, Postemergence): 2
- Plant response rating, Rape (rape (Brassica napus); Rate 250 g/ha, Preemergence): 0
- Plant response rating, Soybean (soybean (Glycine max); [16]): 0
- Soybean plant response rating (soybean (Glycine max); Rate 62 g/ha, Postemergence): 0
- Soybean plant response rating (soybean (Glycine max); Rate 125 g/ha, Postemergence): 1
- Plant response rating, Soybean (soybean (Glycine max); Rate 125 g/ha, Preemergence): 0
- Plant response rating, Soybean (soybean (Glycine max); Rate 250 g/ha, Postemergence): 1
- Plant response rating, Soybean (soybean (Glycine max); Rate 250 g/ha, Preemergence): 0
- Plant response rating, Sugarbeets [10, 16]: 0
- Sugarbeets plant response rating ([10]; Rate 62 g/ha, Postemergence): 1
- Sugarbeets plant response rating ([10]; Rate 125 g/ha, Postemergence): 1
- Plant response rating, Sugarbeets ([10]; Rate 125 g/ha, Preemergence): 0
- Plant response rating, Sugarbeets ([10]; Rate 250 g/ha, Postemergence): 3
- Plant response rating, Sugarbeets ([10]; Rate 250 g/ha, Preemergence): 0
- Plant response rating, Velvetleaf [11, 16]: 0
- Velvetleaf plant response rating ([11]; Rate 62 g/ha, Postemergence): 1
- Velvetleaf plant response rating ([11]; Rate 125 g/ha, Postemergence): 1
- Plant response rating, Velvetleaf ([11]; Rate 125 g/ha, Preemergence): 0
- Plant response rating, Velvetleaf ([11]; Rate 250 g/ha, Postemergence): 1
- Plant response rating, Velvetleaf ([11]; Rate 250 g/ha, Preemergence): 3
- Plant response rating, Wheat [12, 16]: 0
- Wheat plant response rating ([12]; Rate 62 g/ha, Postemergence): 0
- Wheat plant response rating ([12]; Rate 125 g/ha, Postemergence): 0
- Plant response rating, Wheat ([12]; Rate 125 g/ha, Preemergence): 0
- Plant response rating, Wheat ([12]; Rate 250 g/ha, Postemergence): 0
- Plant response rating, Wheat ([12]; Rate 250 g/ha, Preemergence): 0
- Plant response rating, Wild oats (wild oat (Avena fatua); [16]): 0
- Wild oats plant response rating (wild oat (Avena fatua); Rate 62 g/ha, Postemergence): 0
- Wild oats plant response rating (wild oat (Avena fatua); Rate 125 g/ha, Postemergence): 0
- Plant response rating, Wild oats (wild oat (Avena fatua); Rate 125 g/ha, Preemergence): 0
- Plant response rating, Wild oats (wild oat (Avena fatua); Rate 250 g/ha, Postemergence): 1
- Plant response rating, Wild oats (wild oat (Avena fatua); Rate 250 g/ha, Preemergence): 0
- Barnyardgrass plant response rating [13, 17]: 0
- Barnyardgrass plant response rating [13, 18]: 0
- Plant response rating, Barnyardgrass [13, 19]: 0
- Ducksalad plant response rating [14, 17]: 0
- Ducksalad plant response rating [14, 18]: 0
- Plant response rating, Ducksalad [14, 19]: 0
- Rice plant response rating (rice (Oryza sativa); [17]): 0
- Rice plant response rating (rice (Oryza sativa); [18]): 0
- Plant response rating, Rice (rice (Oryza sativa); [19]): 0
- S. Flatsedge plant response rating [15, 17]: 0
- S. Flatsedge plant response rating [15, 18]: 0
- Plant response rating, S. Flatsedge [15, 19]: 0
